According to patent publication US20050244472A1, “Intraocular drug delivery systems containing excipients with reduced toxicity and related methods” (Allergan, Inc., priority 2004, published 2005):
Several values for one entry are separate records, joined by “and”; a condition that tells them apart may be missing. Identical values can stand only once. Like-named read-outs stand apart in the source and are kept apart here.

Columns and labels:
[1] = pH of excipient-containing incubating solutions; format: physicochemical
Method: (§1) For each concentration of tested compound, pH and osmolarity parameters were measured.

ARPE-19 cells [2] = experiment: MTT cell viability assay (mitochondrial dehydrogenase activity) after exposure to excipient
Source text: Cell viability and cell morphology were examined to evaluate the toxicity of excipients on retinal pigment epithelial cells. The human retina cell line used in these experiments is the ARPE-19 cell line (human adult-derived retinal pigmented epithelial cells). […] They form tight-junctions with transepithelial resistance of monolayers (Dunn K C et al., supra). From a molecular standpoint, it appears that ARPE-19 express a huge pattern of genes similar to those expressed by human RPE from fresh explant which could account for their physiological function (Klimanskaya I. et al., “Derivation and comparative assessment of retinal pigment epithelium from human embryonic stem cells using transcriptomics”, Cloning and Stem Cells, 2004, 6(3):217-45).
ARPE-19 cells are widely used as a retinal model that resemble physiological properties of RPE cells. Similar methods of culturing ARPE-19 cells and cytotoxicity assays can be found in Yeung et al., “Cytotoxicity of triamcinolone on cultured human retinal pigment epithelial cells: comparison with dexamethasone and hydrocortisone”, Jpn J. Ophthalmol, 2004; 48:236-242. Cell viability and cell morphology were examined using conventional colormetric and visual methods. Viability and morphology measurements were obtained at 24 hours, 48 hours, and 72 hours after exposure to an excipient composition.
To assess cell viability, mitochondrial metabolism was quantified through conventional colorometric assays (i.e., the MTT assay). This colorimetric assay utilizes 3-(4,5-dimethylthiazol-2-yl)-2,5-diphenyltetrazolium bromide (MTT) and correlates mitochondrial metabolism and cell viability through measurement of dehydrogenase activity which converts a substrate into crystal. More specifically, the assay measures the activity of living cells through mitochondrial dehydrogenases. When dissolved in culture cell medium, MTT solution appears dark orange. Mitochondrial dehydrogenases of viable cells degrade MTT by cleaving the tetrazolium ring yielding to formation of a purple formazan crystal, which is insoluble in water. Crystals are subsequently dissolved in isopropanol solution. A resulting purple solution is spectrophotometrically measured. Cell viability is relative to amount of formazan and calculated as a percentage of remaining treated compared to non-treated cells.
Results from the MTT assay were expressed as a percentage of cell viability calculated using the following equation: % cell viability=ODtest/ODcontrol×100.
For each experiment, one concentration was performed in triplicate. Each point was spectrophotometrically read twice. Average of readings was calculated, then average from these 3 values was determined.
After 3 experiments were independently completed under the same conditions, a graph was plotted with cell viability expressed as a function of concentration (dose response) and for various incubation period (time course). The IC50 was then estimated based on the graphed data.
More specifically, cell density in 24-multiwell plates was observed on the day of the experiment to check if confluence of the cells was reached. Aliquots of MTT concentrated solutions were removed from a freezer at −20° C. and thawed at room temperature. Cell medium was warmed at 37° C. before use. Appropriated tubes for diluting compounds were prepared. Higher concentrations of each excipient agent was prepared. Serial dilution was then performed in cell medium (DMEM:F12+10% FBS).
Cell culture medium in the 24-well plate was removed using vacuum-pump. Cells were then stimulated with 0.5 ml final volume for each concentration of one given excipient agent. Distribution of the excipient-containing solution was performed using automated pipet-aid in sterile environment (under PSM) or not depending on time of compounds and duration of incubation.
After stimulation, cells were replaced in a CO2 incubator for the required time of exposure.

[3] = Osmolarity of excipient-containing incubating solutions; format: physicochemical
Method: Osmolarity was measured using osmometer type 13/13DR from Roebling (Berlin, GR).
as §1

ARPE-19 cells [4] = format: cell-based; design: key to Cell Morphology score, Mean: 5 = basal (wild type) to 1 = lethal phenotype
Method: Cell morphology was visualized using light microscopy. Cell morphology observation using light microscopy permits determination of (i) cell number and density and (ii) whether or not cells in contact with an excipient agent display modified phenotype compared to a non-treated population of cells.
Cell morphology was analyzed in parallel by semi-quantitative scoring ranging from 5 to 1, from basal to lethal phenotype respectively, as shown in FIG. 23.
More specifically, cells were removed from an incubator for examination. Morphological shape of cells was visualized using a light microscope and CCD camera. Every 3 wells of a given concentration was observed through image analysis software. Then, a representative photograph describing the average appearance of cells was saved. The supernatant was either, kept for further predefined experiments to perform, or removed using vacuum-pump.
Resulting semi-quantitative scoring is represented as a function of time course and dose response. Score 5: wild type phenotype of non-treated cells, 100% confluent adherent cells. This phenotype very much vary following post-seeding time. For example, at confluence ARPE-19 cells at 1 day appear well defined with visible outer membrane and dark grey cytoplasm. After 3 days of confluence, limits between cells become less visible and cells adopt a more hexagonal shape and constitute an epithelium-like uniform dense structure. Score 4: density<100%. Cell shape has changed, some spaces are present between cells, few cells possibly detached. Score 3: […]. Spaces are sometimes present among cells, areas appears confluent while in others, cells detached. General cell shape starts showing non negligible alterations. Score 2: Cell density<50%. Cells adopt exclusively stressed appearance, presence of mass dead floating cells. Score 1: Cell density<10%. Presence of almost exclusively dead cells.
Based on quotation, each condition of the applied compound was given a score which allow to a morphology evolution profile to be prepared, ie. cell morphology as a function of compound concentration and time of exposure. […]

[5] = 0.1% excipient dilution in culture medium
[6] = 0.5% excipient dilution in culture medium
[7] = 1% excipient dilution in culture medium
[8] = 5% excipient dilution in culture medium
[9] = 10% excipient dilution in culture medium
[10] = 20% excipient dilution in culture medium
[11] = 0.01% excipient dilution in culture medium
[12] = 0.02% excipient dilution in culture medium
[13] = 0.04% excipient dilution in culture medium
[14] = 0.06% excipient dilution in culture medium
[15] = 0.08% excipient dilution in culture medium

## hydroxypropyl beta-cyclodextrin [Kleptose]
[1]; [5]
  pH: 7.6
[1]; [6]
  pH: 7.6
[1]; [7]
  pH: 7.5
[1]; [8]
  pH: 7.5
[1]; [9]
  pH: 7.5
[1]; [10]
  pH: 7.6
ARPE-19 cells [2]; 5% (w/v), 24 hour time point
  cell survival: about 20%
[3]; [5]
  mOsm: 309 mOsm
[3]; [6]
  mOsm: 317 mOsm
[3]; [7]
  mOsm: 325 mOsm
[3]; [8]
  mOsm: 375 mOsm
[3]; [9]
  mOsm: 459 mOsm
[3]; [10]
  mOsm: 635 mOsm

## hydroxypropyl gamma-cyclodextrin [Cavasol]
ARPE-19 cells [2]
  effect on both cell parameters (viability and morphology): no measurable effect
ARPE-19 cells [2]; 0.05 to 10%, recovery after 24 h
  percentage of living cells: > 80%
ARPE-19 cells [2]; 0.1% (w/v), 24 hour, 48 hour and 72 hour time points
  reduction of cell survival: ≤ 10%
ARPE-19 cells [2]; deduced from viability graphs, incubation 24-72 h
  IC50 (50% cell viability inhibition): not possible to determine the IC50

## hydroxypropylmethyl cellulose [HPMC]
ARPE-19 cells [2]
  diminution of cell viability: 20-40%
  percentage of cell viability: 60-80%

## poloxamer 407nf
ARPE-19 cells [2]
  increase in cell viability up to: up to 200%

## polysorbate 80
[1]; [11]
  pH: 7.5
[1]; [12]
  pH: 7.6
[1]; [13]
  pH: 7.5
[1]; [14]
  pH: 7.5
[1]; [15]
  pH: 7.5
[1]; [5]
  pH: 7.6
ARPE-19 cells [4]; 0.01% Tween80, 24 Hours
  Cell Morphology score: 4 (Score 4: density<100%)
  Cell Morphology score, Mean: 4.0
ARPE-19 cells [4]; 0.01% Tween80, 48 Hours
  Cell Morphology score: 4 (Score 4: density<100%)
  Cell Morphology score, Mean: 4.0
ARPE-19 cells [4]; 0.01% Tween80, 72 Hours
  Cell Morphology score: 4 (Score 4: density<100%)
  Cell Morphology score, Mean: 4.0
ARPE-19 cells [4]; 0.02% Tween80, 24 Hours
  Cell Morphology score: 3 (Score 3: 80%<Cell density<40%) and 4 (Score 4: density<100%)
  Cell Morphology score, Mean: 3.3
ARPE-19 cells [4]; 0.02% Tween80, 48 Hours
  Cell Morphology score: 3 (Score 3: 80%<Cell density<40%) and 4 (Score 4: density<100%)
  Cell Morphology score, Mean: 3.3
ARPE-19 cells [4]; 0.02% Tween80, 72 Hours
  Cell Morphology score: 3 (Score 3: 80%<Cell density<40%) and 4 (Score 4: density<100%)
  Cell Morphology score, Mean: 3.7
ARPE-19 cells [4]; 0.04% Tween80, 24 Hours
  Cell Morphology score: 3 (Score 3: 80%<Cell density<40%) and 4 (Score 4: density<100%)
  Cell Morphology score, Mean: 3.3
ARPE-19 cells [4]; 0.04% Tween80, 48 Hours
  Cell Morphology score: 3 (Score 3: 80%<Cell density<40%)
  Cell Morphology score, Mean: 3.0
ARPE-19 cells [4]; 0.04% Tween80, 72 Hours
  Cell Morphology score: 3 (Score 3: 80%<Cell density<40%)
  Cell Morphology score, Mean: 3.0
ARPE-19 cells [4]; 0.06% Tween80, 24 Hours
  Cell Morphology score: 3 (Score 3: 80%<Cell density<40%)
  Cell Morphology score, Mean: 3.0
ARPE-19 cells [4]; 0.06% Tween80, 48 Hours
  Cell Morphology score: 3 (Score 3: 80%<Cell density<40%)
  Cell Morphology score, Mean: 3.0
ARPE-19 cells [4]; 0.06% Tween80, 72 Hours
  Cell Morphology score: 3 (Score 3: 80%<Cell density<40%)
  Cell Morphology score, Mean: 3.0
ARPE-19 cells [4]; 0.08% Tween80, 24 Hours
  Cell Morphology score: 2 (Score 2: Cell density<50%) and 3 (Score 3: 80%<Cell density<40%)
  Cell Morphology score, Mean: 2.3
ARPE-19 cells [4]; 0.08% Tween80, 48 Hours
  Cell Morphology score: 2 (Score 2: Cell density<50%) and 1 (Score 1: Cell density<10%)
  Cell Morphology score, Mean: 1.7
ARPE-19 cells [4]; 0.08% Tween80, 72 Hours
  Cell Morphology score: 1 (Score 1: Cell density<10%)
  Cell Morphology score, Mean: 1.0
ARPE-19 cells [4]; 0.1%
  cells floating in a typical round dead shape: over 95%
ARPE-19 cells [4]; 0.1% Tween80, 24 Hours
  Cell Morphology score: 1 (Score 1: Cell density<10%)
  Cell Morphology score, Mean: 1.0
ARPE-19 cells [4]; 0.1% Tween80, 48 Hours
  Cell Morphology score: 1 (Score 1: Cell density<10%)
  Cell Morphology score, Mean: 1.0
ARPE-19 cells [4]; 0.1% Tween80, 72 Hours
  Cell Morphology score: 1 (Score 1: Cell density<10%)
  Cell Morphology score, Mean: 1.0
ARPE-19 cells [4]; ARPE-19 cells, Table 3 summary
  Morphology limit concentration (%): 0.06%
ARPE-19 cells [4]; morphology
  critical limit for lethality (injured cell aspect): 0.06%
ARPE-19 cells [2]
  overall cytotoxicity to ARPE-19 cells (conclusion in words): barely tolerated
ARPE-19 cells [2]; 0.1% (w/v)
  cell survival: substantially zero
[3]; [11]
  mOsm: 310 mOsm
[3]; [12]
  mOsm: 307 mOsm
[3]; [13]
  mOsm: 313 mOsm
[3]; [14]
  mOsm: 346 mOsm
[3]; [15]
  mOsm: 390 mOsm
[3]; [5]
  mOsm: 523 mOsm

## sodium carboxymethylcellulose [CMC]
ARPE-19 cells [2]
  percentage of cell viability: 80-100%

## sulfobutyl ether 4 beta-cyclodextrin [Captisol]
[1]; [5]
  pH: 7.6
[1]; [6]
  pH: 7.6
[1]; [7]
  pH: 7.6
[1]; [8]
  pH: 7.6
[1]; [9]
  pH: 7.7
[1]; [10]
  pH: 7.7
ARPE-19 cells [2]
  Cell Viability, Mean (%): 40%
  overall cytotoxicity to ARPE-19 cells (conclusion in words): mild cytotoxicity
[3]; [5]
  mOsm: 310 mOsm
[3]; [6]
  mOsm: 318 mOsm
[3]; [7]
  mOsm: 333 mOsm
[3]; [8]
  mOsm: 408 mOsm
[3]; [9]
  mOsm: 518 mOsm
[3]; [10]
  mOsm: 710 mOsm
